Earlier results, collected in patent US20220054659A1, “PSMA-TARGETED PAMAM DENDRIMERS FOR SPECIFIC DELIVERY OF IMAGING, CONTRAST AND THERAPEUTIC AGENTS” (The Johns Hopkins University, priority 2018, published 2022).

Target: PSMA (Homo sapiens, UniProt Q04609)
Sequence (Q04609 whole entry, species assumed): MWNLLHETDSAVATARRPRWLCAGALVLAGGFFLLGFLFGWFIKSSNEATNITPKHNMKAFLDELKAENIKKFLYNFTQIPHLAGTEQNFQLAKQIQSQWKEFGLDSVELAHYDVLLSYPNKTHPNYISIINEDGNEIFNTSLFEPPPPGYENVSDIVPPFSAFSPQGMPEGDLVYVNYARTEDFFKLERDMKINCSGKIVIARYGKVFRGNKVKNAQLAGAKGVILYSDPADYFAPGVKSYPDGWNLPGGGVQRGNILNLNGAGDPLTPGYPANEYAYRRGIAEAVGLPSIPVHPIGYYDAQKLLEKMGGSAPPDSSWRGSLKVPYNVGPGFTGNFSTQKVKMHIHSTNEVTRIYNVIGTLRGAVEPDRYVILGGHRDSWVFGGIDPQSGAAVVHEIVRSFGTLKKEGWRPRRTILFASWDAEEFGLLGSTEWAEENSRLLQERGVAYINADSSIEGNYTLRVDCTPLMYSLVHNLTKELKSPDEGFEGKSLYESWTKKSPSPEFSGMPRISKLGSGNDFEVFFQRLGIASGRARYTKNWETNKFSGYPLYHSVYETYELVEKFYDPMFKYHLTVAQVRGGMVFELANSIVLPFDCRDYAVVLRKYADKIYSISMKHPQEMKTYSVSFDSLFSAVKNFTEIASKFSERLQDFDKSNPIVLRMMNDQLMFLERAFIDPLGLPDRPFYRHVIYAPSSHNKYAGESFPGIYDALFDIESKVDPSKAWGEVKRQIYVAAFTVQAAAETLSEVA

SMILES: NCCCC[C@H](NC(=O)N[C@@H](CCC(=O)O)C(=O)O)C(=O)O [Lys-Glu-urea]
- affinity to PSMA: picomolar
